{
  "source": "patent US20110237495A1",
  "about": "“FUNCTIONAL METABOLOMICS COUPLED MICROFLUIDIC CHEMOTAXIS DEVICE AND IDENTIFICATION OF NOVEL CELL MEDIATORS” (The Brigham and Women's Hospital, Inc. Corporate Sponsored …, priority 2008, published 2011)",
  "key": {"[1]": {"conditions": "cited from earlier work"}, "[2]": {"test": "Metabolic inactivation of RvE1 by mouse lung tissue", "type": "in vitro ADME"}, "[3]": {"test_system": "leukocyte infiltration in lung tissues", "test": "Hind-limb ischemia-reperfusion-induced second-organ (lung) injury, lung MPO by ELISA", "type": "in vivo, mice", "conditions": "for effect on leukocyte (PMN) infiltration / MPO in lung tissue, in words: 1 μg/mouse i.v.; for reduction of lung MPO concentration (FIG. 7D), mean±SEM: 1 μg i.v. 5 min before reperfusion, lungs collected after 2 h reperfusion", "experimental": "To identify the effects of the resolvins and protectins on inflammation resolution, ischemia-reperfusion induced second-organ injury experiments were designed and are illustrated in FIGS. 7A-D. Mice were anesthetized by intraperitoneal injection of pentobarbital (80 mg kg^−1, Nembutal sodium solution NDC 0074-3778-04). Hind-limb ischemia was initiated using tourniquets consisting of a rubber band placed on each hind limb as in ref.^35. Mice were subjected to hind limb ischemia for 1 h, after which the tourniquets were removed to initiate reflow-reperfusion. Resolvins, related compounds and analogs were each administered at 1 μg/mouse (i.e., DHA, RvD1, RvD1 methyl ester, 17-(R/S)-methyl-RvD1 methyl ester, RvE1, or 19-p-fluorophenoxy-RvE1 methyl ester) in vehicle (5 μl ethanol in 120 μl sterile saline) or vehicle alone. They were administered intravenously to the tail vein ˜5 min before the start of the reperfusion period. At the end of this reperfusion period (2 h), the mice were euthanized with an overdose of anesthetic and the lungs were quickly harvested, frozen in liquid nitrogen, and stored at −80° C. The right lungs were homogenized from individual mice and centrifuged, and the tissue levels of myeloperoxidase (MPO) (a leukocyte marker enzyme) in the resulting supernatants, for each experimental protocol, were determined using a mouse MPO enzyme-linked immunosorbent assay (Hycult biotechnology, Cell Sciences, Uden, The Netherlands).\nBriefly, as illustrated in the time-course shown in FIG. 7A, hind-limb ischemia was induced in mice by creating tourniquets using a rubber band on each hind limb. After 1 h, the tourniquets were removed and reperfusion ensued. Test compounds (1 μg of DHA, RvD1, RvE1) in vehicle were administered intravenously 5 min before the start of the reperfusion period. At the end of the reperfusion period (2 h), lungs were collected and MPO concentrations were determined by ELISA. FIGS. 7B and C are representative images from histological analysis. FIG. 9B is a photomicrograph showing a hematoxylin/eosin-stained lung from ischemia/reperfusion second organ injury (control). […] Mean±SEM (n=3-5, control; n=12).\nIschemia/reperfusion is a well-appreciated pathophysiologic mechanism of organ injury and local tissue damage that can be initiated by excessively activated PMN. This system in the mouse, models the second organ injury observed in humans following tourniquet release of vessels in surgery involving, for example, extremities^41, 42. Remote or second organ injury can also occur when blood vessels are occluded, or during certain surgical procedures that create local ischemia and remote organ injury that has many features of rapid, acute inflammation and tissue damage^35. On release of the tourniquet occlusion, reflow is initiated and activated PMN rapidly infiltrate secondary organs, causing damage^35. Here, the inventors evaluated RvD1 in a remote organ injury system, i.e., hind-limb ischemia/reperfusion, to assess whether RvD1's ability to inhibit PMN migration, in vitro, in microchambers (FIGS. 8A-C, 9-11) can be predictive of their effect to reduce PMN mediated tissue and organ damage in vivo. […] The extent of lung tissue injury is associated with PMN activation and organ infiltration^35."}, "[4]": {"conditions": "human plasma; cited from earlier work"}, "[5]": {"test_system": "human PMN", "test": "Microfluidic chemotaxis device: PMN chemotaxis in IL-8 gradient", "type": "cell-based", "conditions": "10 nM (DHA equimolar), PMN captured on P-selectin from a drop of whole blood, n=12", "text": "A new microvolume chemotaxis device was designed using polyethylene glycol (PEG) that allows testing the chemotactic function of neutrophils and their responses to these novel lipid mediators immediately after being separated from whole blood within the device. One exemplary embodiment of the device is illustrated in FIGS. 8A-C. In this embodiment, the microvolume chemotaxis device with microstructured valves was fabricated using “lab-on-chip” microfabrication technologies^36. Briefly, two silicon wafers were coated with a 50-μm-thick layer of SU8 photoresist (MicroChem, Newton, Mass.). After exposure to UV light through a mylar mask in a mask, aligner and development following manufacturer recommendations, 50 μm-tall features were produced on top of the silicon wafers. Subsequently, poly (dimethylsiloxane) (PDMS, Dow Corning, Midland, Mich.) was prepared by mixing two components in 10:1 ratio, as recommended by the manufacturer. […]\nAfter assembly, different sections of the device were chemically modified for specific functionalities. […] The surface of the chemotaxis chamber, where neutrophils were captured and assessed for their chemotactic responses, were modified by physical adsorption of P-selectin (10 ng/mL for 30 minutes, R&D Systems, Minneapolis, Minn.) immediately before use. […]"}, "[6]": {"test_system": "peripheral blood monocytes", "test": "RANKL-induced differentiation of peripheral blood monocytes into osteoclasts", "type": "cell-based", "conditions": "RANKL treatment", "text": "This effect is even more pronounced than for PRP (platelet rich plasma) a recognized inhibitor of osteoclast differentiation. Preparations of 5, 10, 20% PRP are compared with RvE1 were quantified in experiments in which peripheral blood monocytes were induced to differentiate into osteoclasts with RANKL treatment.\nIn order to investigate the etiology of resolvins in bone regeneration, the inventors investigated the effect of RvE1 on osteoclast differentiation. In these experiments, peripheral blood monocytes were induced to differentiate into osteoclasts with RANKL treatment."}, "[7]": {"test_system": "P. gingivalis-induced periodontitis", "test": "Rabbit periodontitis induced with Porphyromonas gingivalis, RvE1 topical monotherapy", "type": "in vivo", "text": "The inventors established a small animal model for the evaluation of disease progression and regeneration after treatment using the rabbit as a model induced with periodontitis using Porphyromonas gingivalis. Briefly, ligatures were tied around the second mandibular premolar of rabbits for 6wk to create an environment where the periodontopatogen P. gingivalis could be retained. […] The right panel is the same preparation but with the jaws defleshed to show the bone underneath. […] FIG. 13 sows that the bone loss extends from the crest of the bone to the depth of the infrabony pocket.\nThe figures illustrate the new deposition of the cementum (NC) the new periodontal ligament (PL), connective tissue (CT) and bone (B)."}, "[8]": {"conditions": "healthy human subjects; cited from earlier work"}},
  "note": "“Also recorded” adds a separate entry of the source.",
  "data": [
    {"smiles": "CCC(=O)/C=C/C=C\\C[C@@H](O)/C=C/C=C/C=C\\[C@@H](O)CCCC(=O)O", "note": "[18-oxo-RvE1]", "values": [
      {"measurement": "activity of the lung metabolite", "setting": "[1]", "result": "devoid of activity"}
    ]},
    {"smiles": "COC(=O)CCC[C@H](O)\\C=C/C=C/C=C/[C@H](O)C/C=C\\C=C\\[C@@H](O)COc1ccc(F)cc1", "note": "[19-p-fluorophenoxy-RvE1-Me, 19-p-fluorophenoxy-RvE1 methyl ester]", "values": [
      {"measurement": "metabolic inactivation (conversion to 18-oxo) in mouse lung tissue", "setting": "[2]", "result": "prevents this metabolic inactivation"},
      {"measurement": "percent reduction of MPO found in lungs (FIG. 11), mean±SEM", "setting": "[3]; 1 μg i.v. in vehicle, ischemia-reperfusion", "result": "19.7 ±7.7", "unit": "%"},
      {"measurement": "effect on leukocyte (PMN) infiltration / MPO in lung tissue, in words", "setting": "[3]", "result": "significantly reduced leukocyte infiltration"}
    ]},
    {"smiles": "CC/C=C\\C/C=C\\C/C=C\\C/C=C\\C/C=C\\C/C=C\\CCC(=O)O", "note": "[DHA, [4Z,7Z,10Z,13Z,16Z,19Z]-docosa-4,7,10,13,16,19-hexaenoic acid, reference compound]", "values": [
      {"measurement": "half-life", "setting": "[4]", "result": 20, "unit": "h"},
      {"measurement": "reduction of lung MPO concentration (FIG. 7D), mean±SEM", "setting": "[3]", "result": "0±7.7"},
      {"measurement": "effect on leukocyte (PMN) infiltration / MPO in lung tissue, in words", "setting": "[3]", "result": "neither DHA nor native RvE1 gave significant reduction"},
      {"measurement": "effect on PMN migration (chemotaxis) in IL-8 gradient", "setting": "[5]", "result": "did not stop PMN migration; also recorded: failed to stop neutrophil chemotaxis"}
    ]},
    {"smiles": "CC/C=C\\C/C=C\\C/C=C\\C/C=C\\C/C=C\\CCCC(=O)O", "note": "[EPA, [5Z,8Z,11Z,14Z,17Z-icosa-5,8,11,14,17-pentaenoic acid]", "values": [
      {"measurement": "half-life", "setting": "[4]", "result": 67, "unit": "h"}
    ]},
    {"smiles": "CC[C@@H](O)/C=C/C=C\\C[C@@H](O)/C=C/C=C/C=C\\[C@@H](O)CCCC(=O)O", "note": "[RvE1, 5S,12R,18R-trihydroxy-6Z,8E,10E,14Z,16E-eicosapentaenoic acid]", "values": [
      {"measurement": "osteoclast differentiation", "setting": "[6]; PRP 5, 10, 20%, P<0.05", "result": "significantly inhibited"},
      {"measurement": "resorption area (FIG. 15)", "setting": "[6]; increasing amounts", "result": "significantly decreased"},
      {"measurement": "reduction of lung MPO concentration (FIG. 7D), mean±SEM", "setting": "[3]", "result": "0±9.3"},
      {"measurement": "effect on leukocyte (PMN) infiltration / MPO in lung tissue, in words", "setting": "[3]", "result": "inactive"},
      {"measurement": "bone regeneration compared with healthy controls (FIG. 13)", "setting": "[7]; animals with induced periodontitis treated with RvE1", "result": "approximately 80%"},
      {"measurement": "histology of regenerated periodontium (undecalcified sections)", "setting": "[7]; area of prior periodontal disease", "result": "establishment of new cementum, new fiber attachment and new bone and connective tissue"},
      {"measurement": "RvE1-induced bone regeneration, in words", "setting": "[7]; p<0.001", "result": "to pre-disease levels"}
    ]},
    {"smiles": "CC/C=C\\C/C=C\\C/C=C\\CCCCCCCC(=O)O", "note": "[α-linolenic acid]", "values": [
      {"measurement": "extent of conversion to DHA", "setting": "[8]", "result": "0.05 to 4.0", "unit": "%"},
      {"measurement": "proportion converted to EPA", "setting": "[8]", "result": "0.20 to 8.0", "unit": "%"}
    ]}
  ]
}
